Assay results taken from patent US7414042B2, “Method and composition for selectively inhibiting melanoma” (The Board of Trustees of The University of Illinois, priority 1995, dated 2008).
In brackets after ≈: the same amount, converted by molar mass. Read-outs that look alike come from different tables or passages of the source.

How the values were obtained:
LNCaP (prostate) = test: Cytotoxicity against cultured human cancer cells (SRB); assay type: cell-based; conditions: Homo sapiens, LNCaP, 72 h, read-out: ED50 LNCaP
Experimental: (§1) The plates were incubated for three days. […] Dose response studies were performed to generate ED50 values.

HT-1080 (sarcoma) = test: as above; assay type: cell-based; conditions: Homo sapiens, HT-1080, 72 h, three days incubation, read-out: ED50 HT-1080
Experimental: as §1

COL-2 (colon) = test: as above; assay type: cell-based; conditions: Homo sapiens, Col2, 72 h, read-out: ED50 COL-2
Experimental: as §1

ZR-75-1 (breast) = test: as above; assay type: cell-based; conditions: Homo sapiens, ZR-75-1, 72 h, read-out: ED50 ZR 75-1
Experimental: as §1

BC-1 (breast) = test: as above; assay type: cell-based; conditions: Homo sapiens, 72 h, read-out: ED50 BC-1
Experimental: as §1

[1] = tested on: human melanoma and nonmelanoma cancer cell lines; test: Cytotoxicity profile across the panel of human cancer cell lines; conditions: Table 1 panel
Experimental: (§2) In the following Table 1, the extracted betulinic acid and the other pure compounds were tested for cycotoxity against the following cultured human cell lines: A431 (squamous cells), BC-1 (breast), COL-2 (colon), HT-1080 (sarcoma), KB (human oral epidermoid carcinoma), LNCaP (prostate), LU-1 (lung), MEL-2 (melanoma), U373 (glioma) and ZR-75-1 (breast).
(§3) Cytotoxicity of the crude extracts and purified compounds was determined in a number of cultured human cancer cell lines. The cells were cultured in appropriate media and under standard conditions. To maintain logarithmic growth, the media were changed 24 hours prior to cytotoxic assays. On the day of the assay, the cells were harvested by trypsinization, counted, diluted in media, and added to 96-well plates containing test compounds dissolved in DMSO; the final DMSO concentration was 0.05%.
(§4) The plates were incubated for three days. Following the incubation period, the cells were fixed and stained with sulforhodamine B (SRB) dye. The bound dye was liberated with Tris base, and the OD515 was measured on an ELISA reader. The growth of the betulinic acid-treated cells was determined by the OD515 values, and the growth was compared to the OD515 values of DMSO-treated control cells. Dose response studies were performed to generate ED50 values.
(§5) The biological evaluation of the derivatives focused on the activity against human melanoma cell lines. In particular, the following betulinic acid derivatives were prepared and tested for cytotoxicity profile against human melanoma cell lines and against a number of selected nonmelanoma cell lines.

MEL-2 (melanoma) = test: Cytotoxicity against cultured human melanoma cells (SRB); assay type: cell-based; conditions: for IC50: Homo sapiens, MEL2, 72 h, three days incubation, SRB, Table 1 and text, read-out: ED50 MEL-2; for ED50 (Std. Dev.) MEL-2: derivatives, Tables 2-6
Experimental: as §1

LOX melanoma cell line = test: Cytotoxicity of betulinic acid derivatives; assay type: cell-based, human; conditions: Tables 2-6
Experimental: as §1

MEL-8 melanoma cell line = test: Cytotoxicity of betulinic acid derivatives; assay type: cell-based, human; conditions: Tables 2-6
Experimental: as §1

[2] = tested on: MALE-3M melanoma cell line; test: Cytotoxicity of betulinic acid derivatives; assay type: cell-based, human; conditions: Tables 2-6
Experimental: as §1

MEL-6 melanoma cell line = test: Cytotoxicity of betulinic acid derivatives; assay type: cell-based, human; conditions: Tables 2-6
Experimental: as §1

[3] = tested on: KB (human oral epidermoid carcinoma); test: Cytotoxicity against cultured human cancer cells (SRB); assay type: cell-based; conditions: for ED50 (Std. Dev.) KB: derivatives, Tables 2-6; for IC50: Homo sapiens, 72 h, three days incubation, SRB, Table 1, read-out: ED50 KB
Experimental: as §1

[4] = tested on: human melanoma and nonmelanoma cancer cell lines
Experimental: as §2, §3, §4, §5

U373 (glioma) = test: Cytotoxicity against cultured human cancer cells (SRB); assay type: cell-based; conditions: Homo sapiens, U373 MG, 72 h, read-out: ED50 U373
Experimental: as §1

A431 (squamous cells) = test: as above; assay type: cell-based; conditions: Homo sapiens, A-431, 72 h, read-out: ED50 A431
Experimental: as §1

Row | Compound | ED50 (Std. Dev.) LOX (LOX melanoma cell line) [µg/mL] | ED50 (Std. Dev.) MEL-8 (MEL-8 melanoma cell line) | ED50 (Std. Dev.) MALE-3M [2] [μg/mL] | ED50 (Std. Dev.) MEL-6 (MEL-6 melanoma cell line) | ED50 (Std. Dev.) KB [3] [µg/mL] | ED50 (Std. Dev.) MEL-2 (MEL-2 (melanoma)) | cytotoxicity and selectivity compared with betulinic acid or the corresponding analog [4] | also measured
1 | CC[C@@]1(O)C(=O)OCc2c1cc1n(c2=O)Cc2cc3ccccc3nc2-1 [Camptothecin] | – | – | – | – | – | – | – | IC50 (LNCaP (prostate); three days incubation, SRB): 0.006 µg/mL (≈ 0.0172 µM); IC50 (HT-1080 (sarcoma)): 0.01 µg/mL (≈ 0.0287 µM); IC50 (COL-2 (colon); three days incubation, SRB): 5 ng/mL (≈ 0.0144 µM); IC50 (ZR-75-1 (breast); three days incubation, SRB): 0.001 µg/mL (≈ 0.00287 µM); IC50 (BC-1 (breast); three days incubation, SRB): 0.07 µg/mL (≈ 0.201 µM); cytotoxic activity profile, cell-type selectivity [1]: relatively intense, nonselective cytotoxic activity; IC50 (MEL-2 (melanoma)): 0.02 µg/mL (≈ 0.0574 µM)
2 | C=C(C)C1CCC2(C=O)CCC3(C)C(CCC4C5(C)CCC(=O)C(C)(C)C5CCC43C)C12 (stereo not shown) [Compound 1] | 18.5 (≈ 42.2 µM) | 3.2 (1.2) μg/mL | >20 | >20 µg/mL | 12.9 (≈ 29.4 µM) | 7.4 (2.4) μg/mL | – | –
3 | C=C(C)C1CCC2(C=NOC)CCC3(C)C(CCC4C5(C)CCC(=NOC)C(C)(C)C5CCC43C)C12 (stereo not shown) [Compound 3] | >20 | >20 µg/mL | >20 | >20 µg/mL | 20 (≈ 40.3 µM) | >20 µg/mL | – | –
4 | C=C(C)C1CCC2(C=NO)CCC3(C)C(CCC4C5(C)CCC(=NO)C(C)(C)C5CCC43C)C12 (stereo not shown) [Compound 4] | 4.1 (≈ 8.75 µM) | 1.4 (0.6) μg/mL | 17.5 | 11.9 (2.7) μg/mL | 3.3 (≈ 7.04 µM) | 2.2 (0.7) μg/mL | improved the cytotoxicity profile, although selectivity was lost | –
5 | CON=C1CCC2(C)C(CCC3(C)C2CCC2C4C(C(C)C)CCC4(C(=O)O)CCC23C)C1(C)C (stereo not shown) [Compound 5] | – | >20 µg/mL | >20 | >20 µg/mL | – | >20 µg/mL | less active | –
6 | CC(C)[C@@H]1CC[C@]2(C(=O)O)CC[C@]3(C)[C@H](CC[C@@H]4[C@@]5(C)CCC(=O)C(C)(C)[C@@H]5CC[C@]43C)[C@@H]12 [Compound 6, Dihydrobetulonic acid] | – | 0.9 (0.4) μg/mL | 20 | 10.8 (2.6) μg/mL | – | 0.7 (0.6) μg/mL | comparable biological activity | –
7 | CC(C)C1CCC2(C(=O)O)CCC3(C)C(CCC4C5(C)CCC(=NO)C(C)(C)C5CCC43C)C12 (stereo not shown) [Compound 7] | – | 1.6 (1.1) μg/mL | 13.9 | 13.1 (1.1) μg/mL | – | 2.2 (0.3) μg/mL | comparable biological activity | –
8 | C=C(C)[C@@H]1CC[C@]2(C(=O)O)CC[C@]3(C)[C@H](CC[C@@H]4[C@@]5(C)CCC(=O)C(C)(C)[C@@H]5CC[C@]43C)[C@@H]12 [Compound 8, Betulonic acid] | 6.9 (≈ 15.2 µM) | 0.4 (0.1) μg/mL | 20 | 15.3 (3.4) μg/mL | 2.5 (≈ 5.5 µM) | 0.9 (0.8) μg/mL | decrease in selective cytotoxicity | –
9 | CC(C)[C@@H]1CC[C@]2(C(=O)O)CC[C@]3(C)C(CCC4[C@@]5(C)CC[C@H](O)C(C)(C)C5CC[C@]43C)C12 (stereo partly shown) [Compound 11, Dihydrobetulinic acid] | >20 | – | – | – | >20 | 5.8 µg/mL (≈ 12.6 µM) | less active | –
10 | C=C(C)[C@@H]1CC[C@]2(CO)CC[C@]3(C)[C@H](CC[C@@H]4[C@@]5(C)CC[C@H](O)C(C)(C)[C@@H]5CC[C@]43C)[C@@H]12 [Compound 12, lup-20(29)-ene-3β,28-diol] | >20 | – | – | – | >20 | >20 µg/mL | – | –
11 | C=C(C)C1CCC2(C(=O)O)CCC3(C)C(CCC4C5(C)CCC(=NOC)C(C)(C)C5CCC43C)C12 (stereo not shown) [Compound 13] | >20 | – | – | – | 4.3 (≈ 8.89 µM) | 8.3 µg/mL (≈ 17.2 µM) | decrease in selective cytotoxicity | –
12 | C=C(C)[C@@H]1CC[C@]2(C(=O)OC)CC[C@]3(C)[C@H](CC[C@@H]4[C@@]5(C)CC[C@H](O)C(C)(C)[C@@H]5CC[C@]43C)[C@@H]12 [Compound 14, Methyl betulinate] | 12.5 (≈ 26.6 µM) | – | – | – | 11.8 (≈ 25.1 µM) | 8.3 µg/mL (≈ 17.6 µM) | – | –
13 | C=C(C)[C@@H]1CC[C@]2(C)CC[C@]3(C)[C@H](CC[C@@H]4[C@@]5(C)CC[C@H](O)C(C)(C)[C@@H]5CC[C@]43C)[C@@H]12 [Compound 15, Lupeol] | 15.6 (≈ 36.6 µM) | – | – | – | >20 | 17.6 µg/mL (≈ 41.2 µM) | – | –
14 | C=C(C)[C@@H]1CC[C@]2(C)CC[C@]3(C)[C@H](CC[C@@H]4[C@@]5(C)CC[C@H](OC(=O)c6ccccc6)C(C)(C)[C@@H]5CC[C@]43C)[C@@H]12 [Compound 16, Lupeol benzoate] | >20 | – | – | – | >20 | >20 µg/mL | – | –
15 | COc1cc([C@@H]2c3cc4c(cc3[C@H](O)[C@H]3COC(=O)[C@H]23)OCO4)cc(OC)c1OC [Podophyllotoxin] | – | – | – | – | – | – | – | IC50 (LNCaP (prostate)): 0.04 µg/mL (≈ 0.0965 µM); IC50 (COL-2 (colon)): 5 ng/mL (≈ 0.0121 µM); IC50 [3]: 0.08 µg/mL (≈ 0.193 µM); IC50 (ZR-75-1 (breast)): 0.4 µg/mL (≈ 0.965 µM); IC50 (U373 (glioma)): 4 ng/mL (≈ 0.00965 µM); IC50 (A431 (squamous cells)): 0.03 µg/mL (≈ 0.0724 µM); IC50 (BC-1 (breast)): 0.03 µg/mL (≈ 0.0724 µM); cytotoxic activity profile, cell-type selectivity [1]: relatively intense, nonselective cytotoxic activity; IC50 (MEL-2 (melanoma)): 0.003 µg/mL (≈ 0.00724 µM)
16 | CC(=O)O[C@H]1C(=O)[C@@]2(C)[C@H]([C@H](OC(=O)c3ccccc3)[C@]3(O)C[C@H](OC(=O)[C@H](O)[C@@H](NC(=O)c4ccccc4)c4ccccc4)C(C)=C1C3(C)C)[C@]1(OC(C)=O)CO[C@@H]1C[C@@H]2O [Taxol, paclitaxel] | – | – | – | – | – | – | – | IC50 (LNCaP (prostate); three days incubation, SRB): 0.02 µg/mL (≈ 0.0234 µM); IC50 (COL-2 (colon); three days incubation, SRB): 20 ng/mL (≈ 0.0234 µM); IC50 [3]: 0.02 µg/mL (≈ 0.0234 µM); IC50 (ZR-75-1 (breast); three days incubation, SRB): 0.02 µg/mL (≈ 0.0234 µM); IC50 (U373 (glioma); three days incubation, SRB): 8 ng/mL (≈ 0.00937 µM); IC50 (BC-1 (breast); three days incubation, SRB): 0.02 µg/mL (≈ 0.0234 µM); cytotoxic activity profile, cell-type selectivity [1]: relatively intense, nonselective cytotoxic activity; IC50 (MEL-2 (melanoma)): 0.06 µg/mL (≈ 0.0703 µM)
